Test results: patent US7041440B2, “IP3-binding polypeptides and methods of using them” (Riken, priority 1998, dated 2006)
Several values for one entry are separate records, joined by “and”; a condition that tells them apart may be missing. Equal values may be shown once. Read-outs that look alike come from different tables or passages of the source. Blank lines part the entries; values can stand above or below the substance they belong to.

What was measured:
[1] = cited from earlier work
[2] = molecular target: T1, IP3 receptor of cerebellar microsome (Mus musculus, UniProt P11881); assay: Inhibition of [3H]IP3 binding of cerebellar microsome by IP3 sponges; settings: 40 μg cerebellar microsome, 9.6 nM [3H]IP3, 100 μl (FIG. 4)
T1 construct: Mouse cerebellum is a tissue that is rich in IP3 receptor; from tissue; host or cells: mouse (ddY) cerebellum, microsomal fraction
Description: The inhibition effects of the IP3-binding polypeptides (IP3 sponges) on [H]IP3-binding activity of cerebellar microsome was analyzed as follows.
A microsomal fraction was prepared from the cerebella of mice ddY (Nippon SLC) mainly by following the method of Nakada et al. (Nakada S. et al., Biochem. J. 277:125–131, 1991). In 100 μl of binding buffer α, various concentrations of the IP3 sponges were added respectively to see the changes in the binding between the cerebellar microsome (40 μg) and 9.6 nM [^3H]-IP3 according to the above method (see Scatchard plot analysis).
Mouse cerebellum is a tissue that is rich in IP3 receptor and whose microsomal fraction has a [^3H]IP3-binding activity which is at least 50 times higher than those in other tissues (Maeda et al., 1990 (supra)). […] It was calculated that, there were about 0.92 pmol of IP3-binding site of cerebellum IP3 receptor and 0.96 pmol of [^3H]IP3 present in the 100 μl solution.

[3] = [3H]IP3-binding activity, Scatchard plot analysis
Description: The IP3-binding activities of these fusion proteins were measured mainly by the method of Yoshikawa et al (1996).
Each fusion protein (IP3 sponge) (0.2 μg) was mixed with 100 μl of binding buffer-α (50 mM Tris-HCl (pH 8.0 at 4° C.), 1 mM EDTA, 1 mM β-mercaptoethanol) that contained 9.6 nM D-myo-[^3H](1,4,5)IP3 (777 GBq/mmol; DuPont NEN) (hereinafter, abbreviated as “[^3H]IP3”) and various concentrations of non-labeled D-myo-(1,4,5)IP3 (Dojindo) (hereinafter, abbreviated as “cold IP3”). The mixture was left to stand on ice for 10 minutes. To the mixture, 4 μl of 50 mg/ml γ-globulin (Sigma) (final concentration: 1 mg/ml) and 100 μl of 30% PEG 6000 (Sigma)/binding buffer-a solution (final concentration: 15%) were added. The resultant mixture was left to stand on ice for 5 minutes, and then centrifuged at 10,000×g at 2° C. for 5 minutes to collect polypeptide/PEG complex. PEG-precipitated [^3H]IP3-binding polypeptide was well solubilized with 180 μl solubilizer Solvable (DuPont NEN). The resultant was neutralized with 18 μl glacial acetic acid and then added to 5 ml liquid scintillation counter (Atomlight [DuPont NEN]) to measure the radioactivity (first radioactivity). Non-specific binding of each protein was determined by measuring the second radioactivity in the presence of 2 μM or 10 μM cold IP3. Then, a specific binding value of each protein was obtained by subtracting the second radioactivity (non-specific binding value) from the first radioactivity values.
Scatchard plot analysis was conducted under the following conditions. For low-affinity polypetides (G224-m30 and control GST), the binding experiment was conducted in 100 μl binding buffer a by adding 9.6 nM [^3H]IP3 (DuPont NEN) and 10–20 nM of cold IP3 to 2 μg of IP3-binding polypeptide, and by adding 9.6 nM [^3H]IP3 (DuPont NEN) and 50 nM-2 μM of cold IP3 to 0.01 μg IP3-binding polypeptide. For high-affinity IP3 sponges (G224 and G224-m49), binding experiment was conducted with 0.02 μg IP3 sponges at [^3H]-IP3 concentrations of 0.15, 0.3, 0.6, 1.2, 2.4, 4.8 and 9.6 nM without adding cold IP3.

[4] = molecular target: T2, IP3 receptor on cerebellar microsome (Mus musculus, UniProt P11881); assay: Inhibition of IP3-induced Ca2+ release (IICR) from cerebellar microsome, fura-2; format: biochemical
T2 construct: Mouse cerebellum is a tissue that is rich in IP3 receptor; from tissue; host or cells: mouse (ddY) cerebellum, microsomal fraction
T2 sequence (P11881 whole entry N1264K/P2675L): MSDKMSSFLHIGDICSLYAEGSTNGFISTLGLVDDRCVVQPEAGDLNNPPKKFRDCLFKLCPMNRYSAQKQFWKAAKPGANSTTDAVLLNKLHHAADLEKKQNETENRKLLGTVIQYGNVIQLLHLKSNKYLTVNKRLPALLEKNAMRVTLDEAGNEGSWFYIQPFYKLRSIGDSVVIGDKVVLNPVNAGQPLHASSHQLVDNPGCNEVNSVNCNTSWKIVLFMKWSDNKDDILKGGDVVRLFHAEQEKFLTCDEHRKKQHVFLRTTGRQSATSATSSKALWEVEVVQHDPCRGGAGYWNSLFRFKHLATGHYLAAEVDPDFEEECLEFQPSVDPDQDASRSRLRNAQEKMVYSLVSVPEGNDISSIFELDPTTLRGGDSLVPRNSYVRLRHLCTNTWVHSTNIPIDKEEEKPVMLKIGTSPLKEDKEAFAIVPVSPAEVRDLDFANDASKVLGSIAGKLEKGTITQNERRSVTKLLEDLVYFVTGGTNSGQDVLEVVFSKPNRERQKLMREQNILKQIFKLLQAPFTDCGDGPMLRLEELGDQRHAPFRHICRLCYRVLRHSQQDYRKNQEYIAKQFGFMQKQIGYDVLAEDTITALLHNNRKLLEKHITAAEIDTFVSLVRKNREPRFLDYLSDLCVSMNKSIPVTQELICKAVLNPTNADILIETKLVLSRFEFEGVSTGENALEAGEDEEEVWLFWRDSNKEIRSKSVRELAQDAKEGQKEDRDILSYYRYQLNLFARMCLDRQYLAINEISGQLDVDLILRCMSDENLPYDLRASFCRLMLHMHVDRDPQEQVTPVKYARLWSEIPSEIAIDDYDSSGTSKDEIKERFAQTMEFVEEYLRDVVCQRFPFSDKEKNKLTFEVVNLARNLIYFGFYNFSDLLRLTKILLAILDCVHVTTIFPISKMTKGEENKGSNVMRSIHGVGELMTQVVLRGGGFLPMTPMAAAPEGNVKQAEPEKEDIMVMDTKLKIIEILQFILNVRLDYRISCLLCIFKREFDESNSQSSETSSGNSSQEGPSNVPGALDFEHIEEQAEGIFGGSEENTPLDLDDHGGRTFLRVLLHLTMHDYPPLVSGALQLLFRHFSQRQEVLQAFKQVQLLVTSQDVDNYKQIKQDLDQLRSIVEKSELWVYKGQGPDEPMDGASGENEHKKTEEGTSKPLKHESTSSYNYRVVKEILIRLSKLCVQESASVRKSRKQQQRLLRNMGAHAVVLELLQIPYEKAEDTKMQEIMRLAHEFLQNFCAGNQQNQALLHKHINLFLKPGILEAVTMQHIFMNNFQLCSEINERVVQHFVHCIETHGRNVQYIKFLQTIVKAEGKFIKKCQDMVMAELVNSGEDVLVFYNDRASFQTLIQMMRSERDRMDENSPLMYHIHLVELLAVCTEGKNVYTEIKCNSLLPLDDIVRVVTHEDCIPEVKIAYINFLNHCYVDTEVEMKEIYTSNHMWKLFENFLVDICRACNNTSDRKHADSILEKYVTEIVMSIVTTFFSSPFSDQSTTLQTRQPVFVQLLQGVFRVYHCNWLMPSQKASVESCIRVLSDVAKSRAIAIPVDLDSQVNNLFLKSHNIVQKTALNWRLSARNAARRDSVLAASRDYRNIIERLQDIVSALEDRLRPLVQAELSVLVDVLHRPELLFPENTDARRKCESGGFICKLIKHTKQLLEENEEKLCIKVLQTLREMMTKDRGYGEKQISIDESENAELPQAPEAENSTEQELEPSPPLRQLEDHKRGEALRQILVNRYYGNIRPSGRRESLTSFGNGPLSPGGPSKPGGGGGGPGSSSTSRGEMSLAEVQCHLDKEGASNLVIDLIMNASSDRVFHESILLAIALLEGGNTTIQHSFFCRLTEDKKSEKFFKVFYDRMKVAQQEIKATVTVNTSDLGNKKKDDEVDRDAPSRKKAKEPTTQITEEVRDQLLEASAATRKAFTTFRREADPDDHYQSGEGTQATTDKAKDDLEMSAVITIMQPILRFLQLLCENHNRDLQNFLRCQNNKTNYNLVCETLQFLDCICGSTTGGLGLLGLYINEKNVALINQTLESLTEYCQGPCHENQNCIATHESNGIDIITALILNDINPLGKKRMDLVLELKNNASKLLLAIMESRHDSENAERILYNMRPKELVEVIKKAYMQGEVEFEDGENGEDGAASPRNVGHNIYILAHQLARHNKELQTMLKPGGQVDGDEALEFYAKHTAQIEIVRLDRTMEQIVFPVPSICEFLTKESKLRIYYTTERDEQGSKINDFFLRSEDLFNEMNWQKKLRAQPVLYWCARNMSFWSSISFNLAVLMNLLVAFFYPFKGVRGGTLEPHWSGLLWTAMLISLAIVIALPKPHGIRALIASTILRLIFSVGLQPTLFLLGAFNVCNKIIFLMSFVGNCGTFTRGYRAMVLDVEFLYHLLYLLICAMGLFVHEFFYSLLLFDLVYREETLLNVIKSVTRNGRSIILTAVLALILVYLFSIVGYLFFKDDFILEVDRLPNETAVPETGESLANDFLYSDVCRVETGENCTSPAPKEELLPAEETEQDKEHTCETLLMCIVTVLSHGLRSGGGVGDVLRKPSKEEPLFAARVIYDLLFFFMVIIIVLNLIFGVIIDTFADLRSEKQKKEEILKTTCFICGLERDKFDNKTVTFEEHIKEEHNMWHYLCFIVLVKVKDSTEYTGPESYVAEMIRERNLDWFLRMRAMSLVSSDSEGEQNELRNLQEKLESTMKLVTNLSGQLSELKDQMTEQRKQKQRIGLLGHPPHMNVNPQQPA
Description: To conduct a test of inhibiting IP3-induced Ca^2+ release, a microsomal fraction was prepared from mouse cerebellum as described in Example 3. The fraction was suspended in Buffer B, dispensed, and stored at −80° C. until it was used.
Composition of Buffer B was 110 mM KCl, 10 mM NaCl, 5 mM KH2PO4, 1 mM DDT, and 50 mM HEPES-KOH (pH 7.2) (containing a cocktail of protease inhibitors [0.1 mM PMSF, 10 μM leupeptin, 10 μM pepstatin A, 10 μM E-64] and 2 mM MgCl2).
An IP3-induced Ca^2+ release activity of cerebellar microsome was determined by using fura-2 (Molecular Probe) as a fluorescent Ca^2+ indicator. Specifically, excitations upon addition of IP3 at two wavelengths (340 nm and 380 nm) were measured with fluorescence spectrophotometer CAF110 (Nihon Bunko) to see the change in the fluorescent intensity ratio (F340/F380) at 500 nm.
IP3-induced Ca^2+ release from the cerebellar microsome is generally EC50=100–200 nM IP3. Cerebellar microsome (100 μg) was mixed with 500 μl of a release buffer (Buffer B containing 1 mM MgCl2, 2 μM fura-2, 1 mM DTT, 10 mM creatine phosphate, 40 U/ml creatine kinase, 1 μg/ml oligomycin, and the cocktail of protease inhibitors) in a measurement cuvette with a stirrer bar. The following reaction was conducted at 30° C. while constantly stirring with the stirrer bar.
One mM of ATP was added to the mixture in the cuvette to activate Ca^2+ pumping (Ca^2+-ATPase), whereby Ca^2+ was incorporated into the inner space of microsome (Ca^2+ loading). Ca^2+ loading was confirmed by monitoring until the decrease of fura-2 fluorescent level became constant. The change in the fura-2 fluorescent intensity ratio was measured (F340/F380) at a subthreshold level.
The effect of IP3 sponge on inhibiting IP3-induced Ca^2+ release activity of cerebellar microsome was analyzed as follows. After the addition of ATP, the curve of fura-2 fluorescent intensity was monitored until the decrease became constant. Then, various concentrations of IP3 sponges were added. After 1 min., 50 nM to 1 μM of IP3 was added to the reaction mixture to observe the change of fura-2 fluorescent intensity induced by the IP3.
The IP3 sponge concentration dependency was determined as follows. High affinity polypeptide G224 of 3.125, 6.25, 12.5, 25, 50, 100, 200 μg/ml were added to the reaction mixture, respectively. After about 1 min., 100 nM of IP3 was added to measure the Ca^2+ release activity induced by the IP3. The concentration dependency of low affinity polypeptide G224-m30 was determined by adding G224-m30 of 200, 400 and 500 μg/ml. After about 1 min., 100 nM of IP3 was added to measure the Ca^2+ release activity induced by the IP3. In addition, G224-m30 of 500 μg/ml was also added, and after about 1 min., 50 nM of IP3 was added to measure the Ca^2+ release activity induced by the IP3.

[5] = [3H]IP3-binding activity, Scatchard plot analysis; remark: listed apart in the source
[6] = purified protein, [3H]IP3 binding
[7] = purified IP3 receptor, Maeda et al. 1990

IC50 of IP3-binding inhibition [2]: about 10 μg/ml | binding to (1,4,5)IP3 and (2,4,5)IP3 [3]: binds well | Kd ([3]; purified GST fusion protein (FIG. 3A, 3B)): 0.083 nM | Bmax ([3]; purified protein): 1.6 pmol/μg purified protein | affinity, times higher than that of polypeptide T734 ([3]; relative to T734): 500 times | concentration required for 50% inhibition of IP3-induced Ca2+ release ([4]; 100 nM IP3 (FIG. 7)): about 20 μg/ml | inhibition of IP3-induced Ca2+ release ([4]; 100 μg/ml, 100 nM IP3 (FIG. 6F)): almost completely inhibited
Substance: G224: fusion polypeptide of GST and amino acids 224–604 (M-224 to K-604) of IP3 receptor

IC50 of IP3-binding inhibition [2]: 100 µg/mL | Bmax ([3]; purified protein): 3.0 pmol/μg purified protein | Kd [3, 6]: 330 nM | Kd ([3]; purified protein, [3H]IP3 binding, listed as G224-m30): ~330 nM | effect on inhibiting Ca2+ release versus control ([4]; 500 μg/ml, 50 nM IP3): Little difference | inhibiting effect on Ca2+ release ([4]; 500 μg/ml, 100 nM IP3): no inhibiting effect
Substance: G224m30: G224 introduced with K508A mutation; low affinity IP3-binding polypeptide

activity, times that of the original T604 ([3]; relative to T604): about 3 times
Substance: N4-T604: protein obtained by deleting amino acids 1–223 of T604; amino acids 224–604

Second part, the substance before the results:

Substance: Amino acid region 224–579: 356-residue polypeptide almost corresponding to the IP3-binding core region
Kd ([1]; Yoshikawa et al. 1996): 2.3 nM

Substance: Purified IP3R: purified natural IP3 receptor, Maeda et al. 1990
Bmax [1, 7]: 2.1 pmol/μg purified protein | Kd [1, 7]: 83 nM

Substance: T604: polypeptide of amino acids 1–604 (M-1 to K-604) of mouse Type-1 IP3 receptor
Kd [3, 6]: 7.6 nM | Kd ([5]; 3 μg T604 soluble fraction, 9.6 nM [3H]IP3, cold IP3 competition (FIG. 2C)): 45 ± 7.6 nM | Bmax ([5]; E. coli soluble fraction): 690 pmol/mg protein and 690±64 pmol/mg protein | Kd ([5]; crude cell lysate / E. coli soluble fraction, 9.6 nM [3H]IP3 competed with cold IP3): 45 nM

Substance: T734: N-terminal 734 amino acids of mouse Type-1 IP3 receptor (mIP3R1)
Bmax ([1]; E. coli soluble fraction, Yoshikawa et al. 1996): 46 pmol/mg protein | Kd ([1]; crude cell lysates, Yoshikawa et al. 1996): 50 ± 2.4 nM
